Results: PMC5901961 (Nature, 2017)

How the values were obtained:
Experiment in all cases: inside-out patch clamp, HEK293, macroscopic current at +[…] mV, Hill fit
Assay type in all cases: cell-based
[1] = target: mouse TRPM4 (Mus musculus, UniProt Q7TN37)
[2] = target: mouse TRPM4 (Mus musculus, UniProt Q7TN37, H160A)
[3] = target: mouse TRPM4 (Mus musculus, UniProt Q7TN37, Y228A)
[4] = target: mouse TRPM4 (Mus musculus, UniProt Q7TN37, W214A)
Chain of mouse TRPM4 (Mus musculus, UniProt Q7TN37, W214A) (Q7TN37 whole entry W214A): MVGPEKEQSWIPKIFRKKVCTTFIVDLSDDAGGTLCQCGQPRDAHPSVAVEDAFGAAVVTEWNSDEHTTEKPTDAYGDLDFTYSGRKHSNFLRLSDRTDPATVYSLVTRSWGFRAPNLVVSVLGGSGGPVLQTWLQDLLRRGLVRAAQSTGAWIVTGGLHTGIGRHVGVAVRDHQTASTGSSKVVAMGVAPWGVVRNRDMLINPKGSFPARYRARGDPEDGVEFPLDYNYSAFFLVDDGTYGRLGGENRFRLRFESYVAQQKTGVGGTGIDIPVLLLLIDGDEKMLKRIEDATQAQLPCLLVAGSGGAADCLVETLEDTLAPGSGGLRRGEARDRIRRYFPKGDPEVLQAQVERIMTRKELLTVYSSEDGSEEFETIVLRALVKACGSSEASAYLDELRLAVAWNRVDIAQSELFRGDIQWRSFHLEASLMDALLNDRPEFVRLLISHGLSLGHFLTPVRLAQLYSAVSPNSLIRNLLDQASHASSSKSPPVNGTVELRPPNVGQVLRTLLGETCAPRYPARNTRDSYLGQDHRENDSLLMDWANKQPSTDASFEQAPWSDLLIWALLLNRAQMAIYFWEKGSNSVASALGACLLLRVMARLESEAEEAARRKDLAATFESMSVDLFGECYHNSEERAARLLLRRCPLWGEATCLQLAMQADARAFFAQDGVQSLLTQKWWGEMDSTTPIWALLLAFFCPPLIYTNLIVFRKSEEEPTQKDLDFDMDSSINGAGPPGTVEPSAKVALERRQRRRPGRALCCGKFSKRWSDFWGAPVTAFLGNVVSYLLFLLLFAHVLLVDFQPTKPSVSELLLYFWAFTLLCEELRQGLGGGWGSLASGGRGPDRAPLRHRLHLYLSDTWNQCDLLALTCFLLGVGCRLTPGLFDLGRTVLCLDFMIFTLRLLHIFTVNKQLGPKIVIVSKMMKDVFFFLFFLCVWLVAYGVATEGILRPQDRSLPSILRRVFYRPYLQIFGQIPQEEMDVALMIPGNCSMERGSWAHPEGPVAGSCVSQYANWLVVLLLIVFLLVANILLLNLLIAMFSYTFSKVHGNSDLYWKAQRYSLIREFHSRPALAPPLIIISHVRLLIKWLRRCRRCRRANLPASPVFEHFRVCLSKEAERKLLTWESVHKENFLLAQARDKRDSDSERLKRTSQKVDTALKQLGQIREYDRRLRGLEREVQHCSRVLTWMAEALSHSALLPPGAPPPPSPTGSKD

Chain of mouse TRPM4 (Mus musculus, UniProt Q7TN37) (Q7TN37 whole entry): as the sequence (Q7TN37 whole entry W214A) above, with A214W counted along it
Chain of mouse TRPM4 (Mus musculus, UniProt Q7TN37, H160A) (Q7TN37 whole entry H160A): as the sequence (Q7TN37 whole entry W214A) above, with H160A, A214W counted along it
Chain of mouse TRPM4 (Mus musculus, UniProt Q7TN37, Y228A) (Q7TN37 whole entry Y228A): as the sequence (Q7TN37 whole entry W214A) above, with A214W, Y228A counted along it

- IC50 [1]: 2300 ± 500 nM
- IC50 [2]: > 160 µM
- IC50 [3]: 14.2 ± 0.7 µM
- IC50 [4]: 6.5 ± 0.8 µM
Compound: Nc1ncnc2c1ncn2[C@@H]1O[C@H](COP(=O)(O)OP(=O)(O)OP(=O)(O)O)[C@@H](O)[C@H]1O [ATP]
